Among the data in patent US6686484B2, “Polycyclic aryl and heteroaryl substituted 1,4-quinones useful for selective inhibition of the coagulation cascade” (Pharmacia Corporation, priority 2000, dated 2004) are IC50 values, retold here.

Holding throughout (type): biochemical
Assay [1] deals with T1, trypsin, type IX from porcine pancreas (Sus scrofa, UniProt P00761).
T1 construct: purchased Sigma, St. Louis Mo; host or cells: porcine pancreas
Briefly: Trypsin Assay. The following applies: substrate L-BAPNA, 60 min room temperature, OD 405 nm; read-out: Trpysin II IC50. Here is the method: 5 ug/ml trypsin, type IX from porcine pancreas and 0.375 mM N-α-Benzoyl-L-arginine-p-nitroanilide (L-BAPNA) are added to a 96-well assay plate containing either inhibitor or buffer (50 mM Tris-HCl, pH 8.0, 100 mM NaCl, 0.1% BSA). The reactions, in a final volume of 100 ul are measured immediately at 405 nm to determine background absorbance. The plate is incubated at room temperature for 60 min, at which time the rate of hydrolysis of the substrate is measured by monitoring the reaction at 405 nm for the release of p-nitroaniline. Percent inhibition of trypsin activity is calculated from OD405nm value from the experimental and control sample.
Recombinant soluble TF, consisting of amino acids 1-219 of the mature protein sequence was expressed in E. coli and purified using a Mono Q Sepharose FPLC. Recombinant human VIIa was purchased from American Diagnostica, Greenwich Conn. and chromogenic substrate N-Methylsulfonyl-D-phe-gly-arg-p-nitroaniline was prepared by American Peptide Company, Inc., Sunnyvale, Calif. Factor Xa was obtained from Enzyme Research Laboratories, South Bend Ind., thrombin from Calbiochem, La Jolla, Calif., and trypsin and L-BAPNA from Sigma, St. Louis Mo. The chromogenic substrates S-2765 and S-2238 were purchased from Chromogenix, Sweden.

Assay [2] has as its target T2, recombinant soluble tissue factor and recombinant human factor VIIa (TF-VIIA) (Homo sapiens, UniProt P08709).
T2 construct: conversion of coagulation factor VII to VIIa by Xa; purchased American Diagnostica, Greenwich Conn; (VIIa); soluble TF made in house in E. coli; host or cells: E. coli (soluble TF)
Briefly: TF-VIIa Assay. The following applies: chromogenic substrate N-Methylsulfonyl-D-phe-gly-arg-p-nitroaniline, 60 min room temperature, OD 405 nm.
Experimental: In this assay 100 nM recombinant soluble tissue factor and 2 nM recombinant human factor VIIa are added to a 96 well assay plate containing 0.4 mM of the substrate, N-Methylsulfonyl-D-phe-gly-arg-p-nitroaniline and either inhibitor or buffer (5 mM CaCl2, 50 mM Tris-HCl, pH 8.0, 100 mM NaCl, 0.1% BSA). The reaction, in a final volume of 100 ul is measured immediately at 405 nm to determine background absorbance. The plate is incubated at room temperature for 60 min, at which time the rate of hydrolysis of the substrate is measured by monitoring the reaction at 405 nm for the release of p-nitroaniline. Percent inhibition of TF-VIIa activity is calculated from OD405nm value from the experimental and control sample.

In another assay the target is human thrombin (Homo sapiens, UniProt P00734). Briefly: Thrombin Assay. The following applies: substrate H-D-Phenylalanyl-L-pipecolyl-L-arginine-p-nitroaniline, 60 min room temperature, OD 405 nm; read-out: Thrombin II IC50.

T1 sequence (P00761 9-231): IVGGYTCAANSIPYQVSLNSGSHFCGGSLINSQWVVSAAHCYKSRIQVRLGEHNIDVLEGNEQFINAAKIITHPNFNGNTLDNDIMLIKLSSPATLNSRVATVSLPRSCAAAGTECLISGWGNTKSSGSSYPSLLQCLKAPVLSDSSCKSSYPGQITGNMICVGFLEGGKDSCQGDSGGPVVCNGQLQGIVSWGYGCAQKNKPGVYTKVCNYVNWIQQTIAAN
T2 sequence (P08709 213-466 limits assumed): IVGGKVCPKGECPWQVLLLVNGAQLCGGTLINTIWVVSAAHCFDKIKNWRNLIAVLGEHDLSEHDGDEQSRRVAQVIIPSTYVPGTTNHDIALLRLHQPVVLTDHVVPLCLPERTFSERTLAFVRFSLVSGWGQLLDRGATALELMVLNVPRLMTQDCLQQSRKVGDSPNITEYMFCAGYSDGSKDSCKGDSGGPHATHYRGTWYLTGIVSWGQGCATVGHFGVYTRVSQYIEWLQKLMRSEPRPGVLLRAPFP
T2 sequence (P08709 61-212 limits assumed): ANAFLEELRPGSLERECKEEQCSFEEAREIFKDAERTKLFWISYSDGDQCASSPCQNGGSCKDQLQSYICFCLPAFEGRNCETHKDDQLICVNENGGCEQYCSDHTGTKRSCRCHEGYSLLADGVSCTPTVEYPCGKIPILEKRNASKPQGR
T2 sequence (P13726 33-251 partner limits assumed): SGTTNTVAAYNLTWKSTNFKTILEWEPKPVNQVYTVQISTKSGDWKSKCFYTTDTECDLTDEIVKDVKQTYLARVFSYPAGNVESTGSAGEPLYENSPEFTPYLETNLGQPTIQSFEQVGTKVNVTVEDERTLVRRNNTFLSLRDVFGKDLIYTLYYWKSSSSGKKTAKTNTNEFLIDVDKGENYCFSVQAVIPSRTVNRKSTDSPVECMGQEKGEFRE
Experimental for human thrombin: 0.28 nM human thrombin and 0.06 mM H-D-Phenylalanyl-L-pipecolyl-L-arginine-p-nitroaniline dihydrochloride are added to a 96-well assay plate containing either inhibitor or buffer (50 mM Tris-HCl, pH 8.0, 100 mM NaCl, 0.1% BSA). The reaction, in a final volume of 100 ul is measured immediately at 405 nm to determine background absorbance. The plate is incubated at room temperature for 60 min, at which time the rate of hydrolysis of the substrate is measured by monitoring the reaction at 405 nm for the release of p-nitroaniline. Percent inhibition of thrombin activity is calculated from OD405nm value from the experimental and control sample.

One may read the IC50 as the concentration that gives 50% inhibition. In the case of `CC(C)NC1=CC(=O)C(c2ccccc2)=C(CC(=O)NCc2ccc(C(=N)N)cc2)C1=O` [Example 1], in assay [1], the IC50 is 110 nM.

On to `N=C(N)c1ccc(CNC(=O)CC2=C(c3ccccc3)C(=O)C=C(NCCc3ccccc3)C2=O)cc1` [Example 2], for which the IC50 in assay [2] amounted to 1300 nM; at human thrombin, 960 nM; in assay [1], 740 nM.
